Measured values published in patent US8404727B2, “Pharmaceutical composition that includes a dipeptidyl peptidase-IV inhibitor” (Glenmark Pharmaceuticals S.A., priority 2009, dated 2013).
Where a name gives a salt, the structure may show the parent alone.

What was measured:
[1] = Compatibility study of melogliptin mesylate with various excipients: related substances (RS) by HPLC; format: physicochemical; details: sealed glass vial
Text: Melogliptin Mesylate was Subjected for Compatibility Studies in Solid State Condition with Dry Mixing Technique Using the Following Protocol:
Melogliptin mesylate and various excipients in predetermined w/w ratios were mixed geometrically. Melogliptin mesylate to excipients ratios were selected based on the excipients concentration expected to be used during the development of the formulation. The placebo of each excipient used was kept on respective stability conditions as control.
The samples were stored in glass vials. The vials were closed with rubber stoppers and sealed with aluminum seals, and kept in upright position.
The vials were stored at three storage conditions: 25° C., 30° C. and 40° C.
The samples were analyzed initially, then followed by the end of 1 week, 2 weeks and 4 weeks time periods for related substances (RS), as monitored by HPLC and differential scanning calorimetry (DSC), to study the interaction between melogliptin and various excipients.
The compatibility data in terms of RS generated initially and upon 4 weeks (“4 W”) storage at about 40° C. of various samples are tabulated below.
Brief Analytical Method for Determination of RS in Melogliptin Mesylate:
A reversed-phase gradient HPLC method was developed. The analysis was performed using C18 HPLC column (Phenomenex Gemini 110 A, C-18, 50×4.6 mm, 3 μm). The mobile phase was a gradient mixture of a solution of 1.26 g of ammonium formate in 1000 ml of purified water adjusted to pH 8.4 using 25% v/v ammonia solution (Mobile Phase A) and a solution of 1.26 g of ammonium formate in a mixture of purified water (800 ml) and acetonitrile (200 ml) adjusted to pH 8.4 using 25% v/v ammonia solution (Mobile Phase B). The gradient program is provided below. The flow rate was 1.0 ml/min; injection volume 20 μl; and column temperature was 25° C. Suitable dilutions of the placebo, standard and test samples were injected in the column. Areas for impurity A (eluted at the relative retention time of 0.51) and total RS in the chromatogram were integrated, and accordingly the contents of impurity A and total RS were determined.

[2] = 4 weeks storage at about 40° C.
[3] = dry mix of melogliptin mesylate with excipient, initial

Row | RS by HPLC, Impurity A, 4 W [1, 2] [% w/w] | RS by HPLC, Total RS, 4 W [1, 2] [% w/w] | RS by HPLC, Impurity A, Initial [1, 3] [% w/w] | RS by HPLC, Total RS, Initial [1, 3] [% w/w] | melting point [°C] | SMILES
1 | 0.05 | 0.13 | 0.02 | 0.12 |  | N#C[C@@H]1C[C@H](F)CN1C(=O)CN[C@@H]1CC[C@H](Cn2cncn2)C1 [Melogliptin mesylate, (2S,4S)-1-{2-[(3S,1R)-3-(1H-1,2,4-triazol-1-ylmethyl)cyclopentylamino]acetyl}-4-fluoropyrrolidine-2-carbonitrile]
2 |  |  |  |  | 158 to 162 | N=C1[C@@H]2C[C@H](F)CN2C(=O)CN1[C@@H]1CC[C@H](Cn2cncn2)C1 (stereo in doubt) [Example 11, 7-fluoro-1-imino-2-[3-(1H-1,2,4-triazol-1-ylmethyl)cyclopentyl] hexahydropyrrolo[1,2-a]pyrazin-4(1H)-one]
3 |  |  |  |  | 150 to 160 | N=C1[C@@H]2C[C@H](F)CN2C(=O)CN1[C@@H]1CC[C@H](Cn2cncn2)C1 (stereo in doubt) (as salt: mesylate) [impurity A, 7-fluoro-1-imino-2-[3-(1H-1,2,4-triazol-1-ylmethyl)cyclopentyl] hexahydropyrrolo[1,2-a]pyrazin-4(1H)-one mesylate]
